Assay results as given in the supplement of paper PMC10307832.

Tests used:
Experiment in all cases: relative viability (nuclei count vs DMSO), 5 days (fraction); higher = more cells survive
[1] = compound: Cn1nnc2c(C(N)=O)ncn2c1=O [Temozolomide] + C[C@]1(O)C[C@@H](c2nc(-c3ccc4ccc(-c5ccccc5)nc4c3)c3c(N)nccn32)C1 [Linsitinib] (partner 1 µM)
How it was run: (§1)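 Nuclei were stained with Hoechst during a one-step fixation (final 0.05% Triton X-100, 1% formaldehyde, 1 ug/ml Hoechst) carried out 5 days after dosing, then counted on 4× images. The cells, lung cancer lines in 1536-well plates, had been dosed by pin tool the day after seeding with one drug alone or a fixed anchor-drug dose plus five library-drug doses (not always all listed) in √10 steps. Relative viability is the nuclei count in treated wells divided by that in vehicle wells, and each value is the median of duplicate plates.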

AZD5582 + Phenformin = compound: C[C@@H](C(=O)N[C@@H](C1CCCCC1)C(=O)N2CCC[C@H]2C(=O)N[C@@H]3[C@@H](CC4=CC=CC=C34)OCC#CC#CCO[C@@H]5CC6=CC=CC=C6[C@@H]5NC(=O)[C@@H]7CCCN7C(=O)[C@H](C8CCCCC8)NC(=O)[C@H](C)NC)NC [AZD5582] + N=C(N)NC(=N)NCCc1ccccc1 [Phenformin] (partner 250 µM)
How it was run: as §1

AZD5582 + Luminespib = compound: C[C@@H](C(=O)N[C@@H](C1CCCCC1)C(=O)N2CCC[C@H]2C(=O)N[C@@H]3[C@@H](CC4=CC=CC=C34)OCC#CC#CCO[C@@H]5CC6=CC=CC=C6[C@@H]5NC(=O)[C@@H]7CCCN7C(=O)[C@H](C8CCCCC8)NC(=O)[C@H](C)NC)NC [AZD5582] + CCNC(=O)c1noc(-c2cc(C(C)C)c(O)cc2O)c1-c1ccc(CN2CCOCC2)cc1 [Luminespib] (partner 0.01 µM)
How it was run: as §1

AZD5582 + Decitabine = compound: C[C@@H](C(=O)N[C@@H](C1CCCCC1)C(=O)N2CCC[C@H]2C(=O)N[C@@H]3[C@@H](CC4=CC=CC=C34)OCC#CC#CCO[C@@H]5CC6=CC=CC=C6[C@@H]5NC(=O)[C@@H]7CCCN7C(=O)[C@H](C8CCCCC8)NC(=O)[C@H](C)NC)NC [AZD5582] + Nc1ncn([C@H]2C[C@H](O)[C@@H](CO)O2)c(=O)n1 [Decitabine] (partner 2 µM)
How it was run: as §1

Row | Cell Line | relative viability ([1]; first compound 0.2 µM) | relative viability ([1]; first compound 0.6325 µM) | relative viability ([1]; first compound 2 µM) | relative viability ([1]; first compound 6.325 µM) | relative viability ([1]; first compound 20 µM) | relative viability (AZD5582 + Phenformin; first compound 0.001581 µM) | relative viability (AZD5582 + Phenformin; first compound 0.005 µM) | relative viability (AZD5582 + Phenformin; first compound 0.01581 µM) | relative viability (AZD5582 + Phenformin; first compound 0.05 µM) | relative viability (AZD5582 + Luminespib; first compound 0.001581 µM) | relative viability (AZD5582 + Luminespib; first compound 0.005 µM) | relative viability (AZD5582 + Luminespib; first compound 0.01581 µM) | relative viability (AZD5582 + Luminespib; first compound 0.05 µM) | relative viability (AZD5582 + Decitabine; first compound 0.001581 µM) | relative viability (AZD5582 + Decitabine; first compound 0.005 µM) | relative viability (AZD5582 + Decitabine; first compound 0.01581 µM) | relative viability (AZD5582 + Decitabine; first compound 0.05 µM)
1 | CAL-12T | 0.627 | 0.799 | 0.841 | 0.778 | 0.698 | 0.354 | 0.27 | 0.408 | 0.222 | 0.192 | 0.298 | 0.401 | 0.326 | – | – | – | –
2 | HCC-44 | 0.668 | 0.741 | 0.681 | 0.718 | 0.562 | 0.169 | 0.149 | 0.105 | 0.145 | 0.921 | 1.12 | 0.96 | 1.2 | 0.828 | 0.786 | 0.845 | 0.681
3 | A-427 | 1.1 | 1.15 | 1.15 | 0.948 | 0.604 | 0.265 | 0.322 | 0.248 | 0.206 | 0.665 | 0.845 | 0.906 | 0.897 | 0.496 | 0.582 | 0.573 | 0.53
4 | NCI-H1666 | 0.69 | 0.713 | 0.616 | 0.688 | 0.482 | 0.532 | 0.544 | 0.557 | 0.609 | 0.888 | 0.931 | 1.01 | 0.946 | 0.658 | 0.73 | 0.626 | 0.704
5 | HCC-78 | 0.387 | 0.618 | 0.668 | 0.67 | 0.529 | 0.606 | 0.664 | 0.389 | 0.567 | – | – | – | – | 0.786 | 0.703 | 0.688 | 0.585
6 | HCC-366 | 0.607 | 0.708 | 0.72 | 0.709 | 0.762 | 0.575 | 0.564 | – | 0.708 | – | – | – | – | 0.346 | 0.37 | 0.386 | 0.395
7 | EPLC-272H | 1.13 | 1.13 | 1.38 | 1.11 | 0.812 | 0.0525 | – | 0.233 | 0.0492 | 0.24 | – | 0.205 | 0.381 | 0.148 | – | 0.385 | 0.0824
8 | NCI-H1755 | 1.01 | 0.98 | 1.04 | 1 | 0.801 | 0.578 | 0.666 | 0.502 | 0.576 | 0.259 | 0.49 | 0.329 | 0.437 | 0.709 | 0.761 | 0.694 | 0.725
9 | SK-MES-1 | 1.14 | 1.09 | 1.07 | 1.13 | 1.05 | 0.6 | 0.678 | 0.649 | 0.655 | 0.773 | 0.925 | 0.683 | 0.956 | 0.336 | 0.365 | 0.416 | 0.347
10 | NCI-H838 | 1.03 | 1.05 | 1.03 | 1.08 | 1.09 | 0.551 | 0.703 | – | 0.594 | 0.33 | 0.318 | – | 0.204 | 0.451 | 0.41 | 0.476 | 0.396
11 | NCI-H2170 | – | – | – | – | – | 0.38 | 0.455 | 0.36 | 0.409 | 0.798 | 0.606 | 0.626 | 0.786 | 0.489 | 0.474 | 0.478 | 0.504
12 | HCC-827 | 0.998 | 0.959 | 0.954 | 0.968 | 0.158 | 0.391 | 0.383 | 0.368 | 0.387 | 0.61 | 0.755 | 0.664 | 0.743 | 0.281 | 0.292 | 0.348 | 0.308
13 | NCI-H1793 | – | 0.884 | 1.15 | 0.846 | 0.839 | 0.295 | 0.404 | 0.306 | 0.264 | 0.23 | 0.282 | 0.239 | 0.18 | 0.487 | 0.607 | 0.473 | 0.53
14 | NCI-H441 | 0.651 | 0.601 | 0.548 | 0.451 | 0.529 | 0.621 | 0.799 | – | 0.674 | 0.313 | 0.388 | – | 0.422 | 0.211 | 0.23 | 0.21 | 0.225
15 | H3255 | – | 0.963 | 0.927 | 0.959 | 0.145 | 0.392 | 0.326 | 0.34 | 0.353 | 0.731 | 0.956 | 0.653 | 0.824 | 0.556 | 0.626 | 0.572 | 0.553
16 | ABC-1 | 0.899 | 0.83 | 0.943 | 0.716 | 0.771 | 0.239 | 0.241 | 0.23 | 0.251 | 0.518 | 0.243 | – | 0.369 | 1.06 | 1.08 | 0.931 | 1.36
17 | 201T | 0.975 | 1.07 | 1.11 | 1.04 | 0.991 | 0.459 | 0.478 | 0.406 | 0.579 | 1.11 | 1.17 | 0.99 | 1.23 | 0.866 | 0.913 | 0.856 | 1.02
